pIC50: −log10 of the molar value. ≈ marks a conversion by molar mass, not a printed value. Calls of active or inactive are those of the source. The calls are words filed in the database; no cut-off is given here.
How the values were obtained:
[1] = target: ADP-ribosylation factor 1 (Homo sapiens) (UniProt P84077); assay: Binding affinity to Arf1 in human HepG2 cell lysate assessed as change in denaturation temperature at 25 uM measured after 3 mins by CETSA; format: subcellular
[2] = test system: HepG2; assay: Induction of apoptosis in human HepG2 cells assessed as early apoptotic cells at 0.4 uM measured after 48 hrs by Annexin V-FITC/propidium iodide staining based flow cytometry (reference value: 1.81%); format: functional
[3] = test system: HepG2; assay: Cell cycle arrest in human HepG2 cells assessed as accumulation at G1 phase at 0.2 uM measured after 24 hrs by propidium iodide staining based flow cytometry (reference value: 42.27%); format: functional
[4] = test system: HepG2; assay: Inhibition of colony formation in human HepG2 cells at 0.4 to 0.8 uM treated every 3 days for 14 days by crystal violet staining based assay; format: functional, cell-based; details: dose 0.4-0.8 µM, time 14.0 day
[5] = test system: HepG2; assay: Induction of apoptosis in human HepG2 cells assessed as increase in cleaved PARP expression at 0.2 to 0.8 uM measured after 48 hrs by Western blot analysis; format: functional, cell-based; details: dose 0.2-0.8 µM
[6] = test system: Bel-7402; assay: Cell cycle arrest in human Bel-7402 cells assessed as accumulation at G1 phase at 0.5 uM measured after 24 hrs by propidium iodide staining based flow cytometry (reference value: 38.72%); format: functional
[7] = test system: HepG2; assay: Induction of ROS generation in human HepG2 cells measured after 48 hrs by DCFH-DA probe based fluorescence microscopy; format: functional, cell-based; details: dose 0.2-0.8 µM, DDE = dose-dependent effect
[8] = Acute toxicity in ICR mouse assessed as change in AST level at 100 mg/kg, ip measured after 6 days; format: organism-based; details: in vivo, 144 h, time 6 day
[9] = test system: Bel-7402; assay: Antiproliferative activity against human Bel-7402 cells measured after 72 hrs by MTT assay; format: functional, cell-based; details: Bel-7402, 72 h
[10] = Acute toxicity in ICR mouse assessed as pathological change in heart at 100 mg/kg, ip measured after 6 days; format: organism-based; details: in vivo, 144 h, time 6 day
[11] = Acute toxicity in ICR mouse assessed as pathological change in liver at 100 mg/kg, ip measured after 6 days; format: organism-based; details: in vivo, 144 h, time 6 day
[12] = Terminal half life in ICR mouse at 10 mg/kg, iv; format: ADME, organism-based; details: in vivo, read-out: beta t1/2 (converted)
[13] = Toxicity in human HepG2 cells xenografted BALB/c nude mouse assessed as adverse effect at 5 to 10 mg/kg, ip administered once daily for 16 days; format: organism-based; details: in vivo, 384 h, dose 5-10 mg/kg, time 16 day
[14] = test system: HepG2; assay: Antiproliferative activity against human HepG2 cells assessed as cell growth inhibition at 1 uM measured after 72 hrs by MTT assay relative to control; format: functional; details: read-out: GI
[15] = test system: HepG2; assay: Cell cycle arrest in human HepG2 cells assessed as accumulation at S phase at 0.4 uM measured after 24 hrs by propidium iodide staining based flow cytometry (reference value: 32.81%); format: functional
[16] = test system: HepG2; assay: Cell cycle arrest in human HepG2 cells assessed as accumulation at S phase at 0.8 uM measured after 24 hrs by propidium iodide staining based flow cytometry (reference value: 32.81%); format: functional
[17] = Acute toxicity in ICR mouse assessed as change in urea level at 100 mg/kg, ip measured after 6 days; format: organism-based; details: in vivo, 144 h, time 6 day
[18] = test system: Bel-7402; assay: Cell cycle arrest in human Bel-7402 cells assessed as accumulation at G2/M phase at 1 uM measured after 24 hrs by propidium iodide staining based flow cytometry (reference value: 30.29%); format: functional
[19] = test system: HepG2; assay: Cell cycle arrest in human HepG2 cells assessed as accumulation at G1 phase at 0.4 uM measured after 24 hrs by propidium iodide staining based flow cytometry (reference value: 42.27%); format: functional
[20] = test system: HepG2; assay: Antitumor activity against human HepG2 cells xenografted in BALB/c nude mouse assessed as increase in cleaved caspase-3 expression at 5 to 10 mg/kg, ip administered once daily for 16 days measured post-last dose by immunohistochemical analysis; format: functional, organism-based; details: dose 5-10 mg/kg, time 16.0 day
[21] = test system: HepG2; assay: Antitumor activity against human HepG2 cells xenografted in BALB/c nude mouse assessed as reduction in tumor weight at 5 to 10 mg/kg, ip administered once daily for 16 days measured post-last dose; format: functional, organism-based; details: dose 5-10 mg/kg, time 16.0 day
[22] = Acute toxicity in ICR mouse assessed as body weight loss at 809 mg/kg, po measured for 6 days; format: organism-based; details: in vivo, 144 h, time 6 day
[23] = test system: HepG2; assay: Cell cycle arrest in human HepG2 cells assessed as accumulation at G2/M phase at 0.4 uM measured after 24 hrs by propidium iodide staining based flow cytometry (reference value: 19.93%); format: functional
[24] = test system: HepG2; assay: Induction of apoptosis in human HepG2 cells assessed as late apoptotic cells at 0.4 uM measured after 48 hrs by Annexin V-FITC/propidium iodide staining based flow cytometry (reference value: 1.66%); format: functional
[25] = test system: HepG2; assay: Induction of apoptosis in human HepG2 cells assessed as chromatin shrinkage at 0.2 to 0.8 uM measured after 48 hrs by Hoechst 33342 staining based fluorescence microscopy; format: functional, cell-based; details: dose 0.2-0.8 µM
[26] = test system: HepG2; assay: Induction of apoptosis in human HepG2 cells assessed as viable cells at 0.2 uM measured after 48 hrs by Annexin V-FITC/propidium iodide staining based flow cytometry (reference value: 94.5%); format: functional; details: read-out: Activity
[27] = test system: Bel-7402; assay: Cell cycle arrest in human Bel-7402 cells assessed as accumulation at G2/M phase at 0.5 uM measured after 24 hrs by propidium iodide staining based flow cytometry (reference value: 30.29%); format: functional
[28] = Solubility of the compound in 5% DMSO and 10% Solutol HS-15 saline solution; format: physicochemical
[29] = Acute toxicity in ICR mouse assessed as change in creatine kinase level at 100 mg/kg, ip measured after 6 days; format: organism-based; details: in vivo, 144 h, time 6 day
[30] = test system: HepG2; assay: Induction of apoptosis in human HepG2 cells assessed as necrotic cells at 0.4 uM measured after 48 hrs by Annexin V-FITC/propidium iodide staining based flow cytometry (reference value: 2.04%); format: functional
[31] = test system: HepG2; assay: Induction of apoptosis in human HepG2 cells assessed as increase in cleaved caspase-3 expression at 0.2 to 0.8 uM measured after 48 hrs by Western blot analysis; format: functional, cell-based; details: dose 0.2-0.8 µM
[32] = Acute toxicity in ICR mouse assessed as change in creatinine level at 100 mg/kg, ip measured after 6 days; format: organism-based; details: in vivo, 144 h, time 6 day
[33] = test system: HeLa; assay: Antiproliferative activity against human HeLa cells measured after 72 hrs by MTT assay; format: functional, cell-based
[34] = AUC (0 to t) in ICR mouse at 10 mg/kg, iv; format: ADME, organism-based; design: dose 10 mg/kg, route iv; details: in vivo
[35] = test system: HepG2; assay: Induction of apoptosis in human HepG2 cells assessed as early apoptotic cells at 0.8 uM measured after 48 hrs by Annexin V-FITC/propidium iodide staining based flow cytometry (reference value: 1.81%); format: functional
[36] = test system: Bel-7402; assay: Inhibition of colony formation in human Bel-7402 cells assessed as reduction in colony size at 0.5 to 2 uM treated every 3 days for 14 days by crystal violet staining based microscopy; format: functional, cell-based; details: dose 0.5-2 µM, time 14.0 day
[37] = test system: HepG2; assay: Cell cycle arrest in human HepG2 cells assessed as accumulation at G2/M phase at 0.2 uM measured after 24 hrs by propidium iodide staining based flow cytometry (reference value: 19.93%); format: functional

Sequence of ADP-ribosylation factor 1 (Homo sapiens) (P84077 whole entry): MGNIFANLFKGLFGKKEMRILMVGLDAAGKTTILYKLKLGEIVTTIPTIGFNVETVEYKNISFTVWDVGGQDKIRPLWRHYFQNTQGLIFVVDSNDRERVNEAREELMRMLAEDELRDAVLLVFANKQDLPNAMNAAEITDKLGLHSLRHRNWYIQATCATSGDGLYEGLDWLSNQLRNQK

With `C[C@H]1CCC/C=C/[C@@H]2C[C@H](O)C[C@H]2[C@H](OC(=O)/C=C/c2ccc(N(C)C)cc2)/C=C/C(=O)O1` the Activity [1] was “Active”, the Activity [2] was 1.45% and the Activity [3] was 48.26%. The inhibition [4] was “Active”, the Activity [5] was “Active” and the Activity [6] was 51.26%. The Activity [7] was “Dde”, the Activity [8] was “Non-Toxic” and the pIC50 [9] was 6.08. The Activity [10] was “Non-Toxic”, the Activity [11] was “Non-Toxic” and the half-life [12] was 2.08 h. The Activity [13] was “Non-Toxic”, the inhibition of growth at 1 µM [14] was 92.1% and the Activity [15] was 21.37%. The Activity [16] was 23.25%, the Activity [17] was “Non-Toxic” and the Activity [18] was 26.22%. The Activity [19] was 57.76%, the Activity [20] was “Active” and the Activity [21] was “Active”. The Activity [22] was “Toxic”, the Activity [23] was 20.88% and the Activity [24] was 3.9%. The Activity [25] was “Active”, the viability at 0.2 µM [26] was 66.1% and the Activity [27] was 27.62%. The solubility [28] was 2500 µg/mL (≈ 5.51 mM), the Activity [29] was “Non-Toxic” and the Activity [30] was 41.57%. The Activity [31] was “Active”, the Activity [32] was “Non-Toxic” and the pIC50 [33] was 6.07. The AUC(0-t) [34] was 4010 ng·h/mL, the Activity [35] was 1.49% and the inhibition [36] was “Active”. It also gave an Activity [37] of 22.32%.
